Test results as given in US20090298936A1, “METHOD FOR ENERGIZING HUMAN BEINGS” (SYMRISE GmbH & Co. KG, priority 2008, published 2009).
Several values for one entry are separate records, joined by “and”; a condition that tells them apart may be missing. Identical values can stand only once.

System: healthy human subjects (panelists)
Experiment: Sniff test with heartbeat measurement (finger clip Heart Rhythm Monitor, Freeze-Framer 2.0) on human panelists
Type: in vivo
Conditions: for energizing effect compared with Amarocite and the mixtures: solution in mineral oil
Source text: In order to introduce compounds of group (a) or a sensory complex as described above into the nasal cavity that will occur using many types of products containing the sensory complex the following method of human testing and data collection was developed, standardized and used to collect and analyze data to substantiate the energizing effects of the sensory complex materials in group (a).
Data collection and analysis of each panelists's heart rate was made using a finger clip attachment for the Heart Rhythm Monitor using Freeze-Framer® 2.0 software from HeartMath®, 14700 West Park Avenue, Boulder Creek, Calif.
The test is divided into 3 parts: • 1) the pre-sniff-test period: places the panelist in a neutral state (15 min), • 2) the sniff-test period (5 min), • 3) the post-sniff-test period (10 min). Typically during each test session, three fragrances (single compound or mixture of compounds) are presented to the panelist, so one test lasts for one hour.

COC(OC)C(C)(C)CC=C(C)C [Amarocite ®, 1,1-dimethoxy-2,2,5-trimethyl-4-hexene]
Heartbeat (bpm) After (individual panelists A-G, after inhalation, 1 wt.-% solution in mineral oil): 77 bpm and 81 bpm and 70 bpm and 78 bpm and 72 bpm and 71 bpm and 90 bpm | Heartbeat (bpm) Difference (individual panelists A-G, after minus before, 1 wt.-% solution in mineral oil): +9 bpm and +25 bpm and +6 bpm (2×) and +10 bpm and +12 bpm (2×) | Heartbeat (bpm) Before (individual panelists A-G, before inhalation (baseline), 1 wt.-% solution in mineral oil): 68 bpm (2×) and 56 bpm and 64 bpm and 60 bpm and 59 bpm and 84 bpm | Heartbeat (bpm) After, Mean (mean of panelists A-G, after inhalation, 1 wt.-% solution in mineral oil): 77 bpm | Heartbeat (bpm) Difference, Mean (mean of panelists A-G, after minus before, 1 wt.-% solution in mineral oil): +11.4 bpm | Heartbeat (bpm) Before, Mean (mean of panelists A-G, before inhalation (baseline), 1 wt.-% solution in mineral oil): 65.6 bpm | average heart rate increase (panelists, administered according to the protocol): 17.3%

CCCCCC1C(=O)CCC1CC(=O)OC (stereo not drawn) [methyl dihydro jasmonate]
energizing effect compared with Amarocite and the mixtures (2.0 wt.-% alone): Stronger energizing effects

CC(C)CCCC(C)CCO (stereo not drawn) [tetrahydrogeraniol]
energizing effect compared with Amarocite and the mixtures (0.8 wt.-% alone): Stronger energizing effects
